{"source": "ChEMBL document CHEMBL1201862", "about": "“PubChem BioAssay data set” (2004)", "key": {"cells [1]": {"experiment": "cells", "assay_type": "functional, cell-based"}, "cells [2]": {"experiment": "cells", "assay_type": "functional, cell-based", "remark": "listed apart in the source"}, "[3]": {"molecular_target": "Nuclear receptor subfamily 5 group A member 2 (Homo sapiens, UniProt O00482)", "sequence (O00482 whole entry)": "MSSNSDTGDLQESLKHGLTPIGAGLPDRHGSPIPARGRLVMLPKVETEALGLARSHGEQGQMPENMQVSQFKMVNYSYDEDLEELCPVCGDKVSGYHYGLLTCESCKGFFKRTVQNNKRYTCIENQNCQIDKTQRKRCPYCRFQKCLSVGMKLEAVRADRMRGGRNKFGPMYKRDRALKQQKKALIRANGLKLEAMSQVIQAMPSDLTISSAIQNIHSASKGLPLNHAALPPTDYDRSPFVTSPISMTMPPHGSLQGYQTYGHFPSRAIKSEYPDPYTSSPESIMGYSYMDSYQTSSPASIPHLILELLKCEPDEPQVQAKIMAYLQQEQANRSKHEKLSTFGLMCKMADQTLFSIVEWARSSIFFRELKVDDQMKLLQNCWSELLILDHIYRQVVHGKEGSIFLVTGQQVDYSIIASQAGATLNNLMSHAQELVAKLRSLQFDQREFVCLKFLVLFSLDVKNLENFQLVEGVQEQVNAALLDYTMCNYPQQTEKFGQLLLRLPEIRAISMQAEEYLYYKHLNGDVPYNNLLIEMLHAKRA", "assay_type": "functional, cell-based"}, "Steroidogenic factor 1": {"molecular_target": "Steroidogenic factor 1 (Homo sapiens, UniProt Q13285)", "sequence (Q13285 whole entry)": "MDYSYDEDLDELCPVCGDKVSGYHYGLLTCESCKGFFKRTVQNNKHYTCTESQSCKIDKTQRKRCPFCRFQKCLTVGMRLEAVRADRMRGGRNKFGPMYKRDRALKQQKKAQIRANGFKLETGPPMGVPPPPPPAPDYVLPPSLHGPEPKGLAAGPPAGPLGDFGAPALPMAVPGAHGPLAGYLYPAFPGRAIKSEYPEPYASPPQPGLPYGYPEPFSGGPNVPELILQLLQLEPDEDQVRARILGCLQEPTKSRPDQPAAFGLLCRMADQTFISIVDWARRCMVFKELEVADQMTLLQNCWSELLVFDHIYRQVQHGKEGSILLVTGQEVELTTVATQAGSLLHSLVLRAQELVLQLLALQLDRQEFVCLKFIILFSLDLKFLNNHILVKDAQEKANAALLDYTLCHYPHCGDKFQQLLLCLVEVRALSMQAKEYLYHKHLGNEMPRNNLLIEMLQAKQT", "experiment": "Counterscreen for inverse agonists of the liver receptor homolog-1 (LRH-1; NR5A2): Luminescence-based cell-based high throughput dose response assay to identify inverse agonists of the Steroidogenic Factor 1 Nuclear Receptor (SF1; NR5A1).", "assay_type": "functional"}, "[4]": {"experiment": "StAR promoter reporter inhibition counter-screen, dose response, counter-screen for LRH-1 inverse agonist project, cell-based, luminescence, luciferase reporter (AID 651969)", "assay_type": "functional"}, "[5]": {"molecular_target": "T1, Carboxy-terminal domain RNA polymerase II polypeptide A small phosphatase 1 (Homo sapiens, UniProt Q9GZU7)", "T1 sequence (Q9GZU7 whole entry)": "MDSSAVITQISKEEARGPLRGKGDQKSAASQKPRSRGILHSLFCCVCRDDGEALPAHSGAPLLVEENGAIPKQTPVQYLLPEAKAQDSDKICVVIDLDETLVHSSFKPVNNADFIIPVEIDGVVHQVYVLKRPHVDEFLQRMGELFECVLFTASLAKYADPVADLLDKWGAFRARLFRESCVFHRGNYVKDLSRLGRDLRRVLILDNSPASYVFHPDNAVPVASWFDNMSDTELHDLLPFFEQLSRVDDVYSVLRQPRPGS", "experiment": "inhibitors of CTDSP1, concentration-response testing, biochemical assay, absorbance-based, actives from ultra-high-throughput screening (AID 540297)", "assay_type": "functional"}, "[6]": {"molecular_target": "T2, Small ubiquitin-related modifier 2 (Homo sapiens, UniProt P61956)", "T2 sequence (P61956 whole entry)": "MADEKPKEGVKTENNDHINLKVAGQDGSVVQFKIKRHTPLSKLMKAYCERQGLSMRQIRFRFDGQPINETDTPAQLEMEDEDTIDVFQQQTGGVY", "experiment": "SUMO2–SIM peptide binding inhibitors, dose response, selectivity assay for SUMO1 interaction inhibitor project, biochemical, fluorescence polarization, uHTS hits (AID 624385)", "assay_type": "functional", "settings": "read-out: IC50_Mean"}, "[7]": {"molecular_target": "T3, Small ubiquitin-related modifier 1 (Homo sapiens, UniProt P63165)", "T3 sequence (P63165 whole entry)": "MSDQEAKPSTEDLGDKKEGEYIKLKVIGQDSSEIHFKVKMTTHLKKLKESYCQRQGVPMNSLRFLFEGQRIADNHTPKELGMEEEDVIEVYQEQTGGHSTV", "experiment": "inhibitors of SUMO1 peptide binding, dose response, biochemical, fluorescence polarization, uHTS hits (AID 624382)", "assay_type": "functional", "settings": "read-out: IC50_Mean"}, "[8]": {"molecular_target": "T4, Probable nicotinate-nucleotide adenylyltransferase (Staphylococcus aureus (strain N315), UniProt P65502)", "T4 sequence (P65502 whole entry)": "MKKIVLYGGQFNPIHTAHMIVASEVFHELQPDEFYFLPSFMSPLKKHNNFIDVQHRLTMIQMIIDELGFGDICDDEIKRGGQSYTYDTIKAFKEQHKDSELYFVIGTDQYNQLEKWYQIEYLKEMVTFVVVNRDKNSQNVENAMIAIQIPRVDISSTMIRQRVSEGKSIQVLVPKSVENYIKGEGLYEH", "assay_type": "functional, Staphylococcus aureus subsp. aureus N315"}, "[9]": {"molecular_target": "T4, Probable nicotinate-nucleotide adenylyltransferase", "assay_type": "functional, Staphylococcus aureus subsp. aureus N315", "settings": "read-out: IC50_Mean"}, "[10]": {"molecular_target": "T2, Small ubiquitin-related modifier 2", "experiment": "inhibitors of SUMO2 protein-protein interaction, dose response, selectivity assay for SUMO1 interaction inhibitor project, biochemical, FRET, human SUMO2, uHTS hits (AID 624384)", "assay_type": "functional", "settings": "read-out: IC50_Mean"}, "[11]": {"molecular_target": "T3, Small ubiquitin-related modifier 1", "experiment": "inhibitors of SUMO1 partner interactions, dose response, biochemical, FRET (AID 624383)", "assay_type": "functional", "settings": "read-out: IC50_Mean"}, "[12]": {"molecular_target": "T5, Heat shock factor protein 1 (Mus musculus, UniProt P38532)", "T5 sequence (P38532 whole entry)": "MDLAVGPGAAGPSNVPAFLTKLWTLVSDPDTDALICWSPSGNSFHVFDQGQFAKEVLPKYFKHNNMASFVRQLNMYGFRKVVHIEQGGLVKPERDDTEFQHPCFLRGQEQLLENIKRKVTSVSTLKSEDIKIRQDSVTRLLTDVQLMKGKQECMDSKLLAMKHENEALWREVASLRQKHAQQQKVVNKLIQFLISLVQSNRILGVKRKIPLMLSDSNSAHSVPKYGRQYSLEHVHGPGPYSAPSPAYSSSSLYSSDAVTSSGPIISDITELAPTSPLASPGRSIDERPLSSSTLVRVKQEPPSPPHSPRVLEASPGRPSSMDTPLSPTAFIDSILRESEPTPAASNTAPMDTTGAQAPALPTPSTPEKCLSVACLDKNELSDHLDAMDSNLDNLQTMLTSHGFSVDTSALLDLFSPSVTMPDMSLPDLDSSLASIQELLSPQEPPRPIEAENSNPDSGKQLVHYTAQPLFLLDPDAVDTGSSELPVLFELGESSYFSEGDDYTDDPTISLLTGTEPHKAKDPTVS", "experiment": "HSF1 potentiators in luciferase reporter cells, confirmation, cell-based, NIH3T3, luminescence, dose retest (AID 435004);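 also: stress induced by proteasome inhibitor MG132 added 30 min after compound; actives raise luminescence as potentiators of the MG132 stress response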", "assay_type": "functional"}, "[13]": {"molecular_target": "T6, Replicative DNA helicase DnaB (Mycobacterium tuberculosis, UniProt P9WMR3)", "T6 sequence (P9WMR3 whole entry)": "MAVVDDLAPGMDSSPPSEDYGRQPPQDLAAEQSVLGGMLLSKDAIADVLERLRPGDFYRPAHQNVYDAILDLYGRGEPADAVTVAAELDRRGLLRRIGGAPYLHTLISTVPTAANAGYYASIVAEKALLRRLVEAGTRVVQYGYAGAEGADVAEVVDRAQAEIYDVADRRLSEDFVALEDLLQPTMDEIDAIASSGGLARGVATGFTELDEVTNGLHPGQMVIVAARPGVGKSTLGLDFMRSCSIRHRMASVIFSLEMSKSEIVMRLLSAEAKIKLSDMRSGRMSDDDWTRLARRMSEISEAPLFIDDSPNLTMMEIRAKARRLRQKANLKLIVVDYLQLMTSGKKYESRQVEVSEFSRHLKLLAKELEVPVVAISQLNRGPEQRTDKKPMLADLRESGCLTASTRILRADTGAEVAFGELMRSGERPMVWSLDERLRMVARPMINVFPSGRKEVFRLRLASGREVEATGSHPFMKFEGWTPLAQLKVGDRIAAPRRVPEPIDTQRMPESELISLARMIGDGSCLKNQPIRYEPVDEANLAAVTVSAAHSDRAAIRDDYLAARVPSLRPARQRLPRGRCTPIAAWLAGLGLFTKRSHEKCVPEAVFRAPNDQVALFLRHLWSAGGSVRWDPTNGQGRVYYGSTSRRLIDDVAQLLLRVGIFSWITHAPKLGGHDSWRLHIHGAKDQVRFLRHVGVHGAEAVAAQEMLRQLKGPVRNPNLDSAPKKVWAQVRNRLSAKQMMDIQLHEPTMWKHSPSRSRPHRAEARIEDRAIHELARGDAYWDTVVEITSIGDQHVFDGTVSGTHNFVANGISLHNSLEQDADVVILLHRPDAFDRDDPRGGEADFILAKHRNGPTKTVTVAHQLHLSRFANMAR", "experiment": "DnaB intein splicing inhibitors, dose response, biochemical, cell-free fluorescence (AID 449749)", "assay_type": "functional"}, "Protein RecA": {"molecular_target": "T7, Protein RecA (Mycobacterium tuberculosis, UniProt P9WHJ3)", "T7 sequence (P9WHJ3 whole entry)": "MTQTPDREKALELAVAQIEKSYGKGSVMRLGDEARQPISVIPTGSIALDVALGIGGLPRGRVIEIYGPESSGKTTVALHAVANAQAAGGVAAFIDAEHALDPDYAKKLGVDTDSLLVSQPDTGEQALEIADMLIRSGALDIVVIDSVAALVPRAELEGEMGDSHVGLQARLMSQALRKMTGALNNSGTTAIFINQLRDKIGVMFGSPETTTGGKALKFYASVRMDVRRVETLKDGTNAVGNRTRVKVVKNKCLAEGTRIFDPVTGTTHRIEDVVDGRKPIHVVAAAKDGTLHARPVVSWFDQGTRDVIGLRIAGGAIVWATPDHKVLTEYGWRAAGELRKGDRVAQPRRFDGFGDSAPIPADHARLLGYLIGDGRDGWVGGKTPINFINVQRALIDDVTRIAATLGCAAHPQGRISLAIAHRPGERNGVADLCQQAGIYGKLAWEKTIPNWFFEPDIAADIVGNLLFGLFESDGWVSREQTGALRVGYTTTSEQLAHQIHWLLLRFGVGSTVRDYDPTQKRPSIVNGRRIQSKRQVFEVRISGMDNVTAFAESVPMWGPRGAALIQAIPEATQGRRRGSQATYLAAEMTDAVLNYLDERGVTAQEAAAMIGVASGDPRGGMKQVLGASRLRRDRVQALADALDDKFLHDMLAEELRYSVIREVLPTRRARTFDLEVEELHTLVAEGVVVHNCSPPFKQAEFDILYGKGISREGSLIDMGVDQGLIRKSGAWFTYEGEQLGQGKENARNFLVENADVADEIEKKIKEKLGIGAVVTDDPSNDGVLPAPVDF", "experiment": "Fluorescence Cell-Free Homogeneous Dose Retest to Identify Inhibitors of RecA-Intein Splicing Activity. [Related pubchem assays (depositor defined):AID2097, AID2223, AID489010, AID492950]", "assay_type": "functional"}, "Melanocortin receptor 4": {"molecular_target": "Melanocortin receptor 4 (Homo sapiens, UniProt P32245)", "sequence (P32245 whole entry)": "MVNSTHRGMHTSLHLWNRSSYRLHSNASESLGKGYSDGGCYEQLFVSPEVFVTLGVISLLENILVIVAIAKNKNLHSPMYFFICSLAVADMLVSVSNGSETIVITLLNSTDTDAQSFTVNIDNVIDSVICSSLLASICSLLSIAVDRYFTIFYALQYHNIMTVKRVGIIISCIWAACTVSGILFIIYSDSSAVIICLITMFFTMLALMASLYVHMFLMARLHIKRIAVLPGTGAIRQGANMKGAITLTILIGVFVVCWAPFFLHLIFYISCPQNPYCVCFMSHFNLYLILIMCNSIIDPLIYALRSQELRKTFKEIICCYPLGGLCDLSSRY", "experiment": "MC4R antagonist potency on cAMP, dose response, cell-based, TR-FRET, biased antagonists (AID 602298);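 also: antagonist potency against agonist-stimulated cAMP production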", "assay_type": "functional"}, "[14]": {"molecular_target": "T8, Polyadenylate-binding protein 1 (Homo sapiens, UniProt P11940)", "T8 sequence (P11940 whole entry)": "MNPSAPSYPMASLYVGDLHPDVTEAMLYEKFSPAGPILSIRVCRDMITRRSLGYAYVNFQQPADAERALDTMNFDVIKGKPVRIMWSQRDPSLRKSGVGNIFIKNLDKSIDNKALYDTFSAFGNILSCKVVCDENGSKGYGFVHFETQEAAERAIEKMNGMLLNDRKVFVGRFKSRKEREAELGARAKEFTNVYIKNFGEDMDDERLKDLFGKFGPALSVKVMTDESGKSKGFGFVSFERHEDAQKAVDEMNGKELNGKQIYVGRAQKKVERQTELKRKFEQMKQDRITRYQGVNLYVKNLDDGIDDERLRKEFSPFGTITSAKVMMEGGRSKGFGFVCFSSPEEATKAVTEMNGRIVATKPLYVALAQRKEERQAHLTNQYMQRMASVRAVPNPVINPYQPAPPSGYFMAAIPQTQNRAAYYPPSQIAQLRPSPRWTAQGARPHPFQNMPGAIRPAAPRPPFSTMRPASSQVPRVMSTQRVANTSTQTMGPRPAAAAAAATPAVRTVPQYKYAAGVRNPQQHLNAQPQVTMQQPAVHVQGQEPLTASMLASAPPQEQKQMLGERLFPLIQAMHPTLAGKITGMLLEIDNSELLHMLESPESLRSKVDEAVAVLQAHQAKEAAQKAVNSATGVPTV", "experiment": "PABP1 MLLE–PAM2 interaction inhibitors, dose response, miRNA deadenylation inhibitor project, biochemical, fluorescence polarization, Cy5-PAM2 peptide, secondary (AID 602260)", "assay_type": "functional", "settings": "read-out: IC50_Mean"}, "[15]": {"molecular_target": "T8, Polyadenylate-binding protein 1", "experiment": "PABP1 MLLE–PAM2 binding inhibitor potency, dose response, biochemical, fluorescence polarization, FITC-PAM2 peptide (AID 602259)", "assay_type": "functional", "settings": "read-out: IC50_Mean"}, "[16]": {"experiment": "nonselective inhibitors of cellular cAMP signaling, dose response, counter-screen for MC4R biased antagonist project, cell-based, TR-FRET cAMP detection (AID 602305);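 also: U2OS cells stimulated with forskolin near its EC80 as the cAMP inducer; potency is for inhibition of forskolin-stimulated cAMP signaling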", "assay_type": "functional"}, "[17]": {"molecular_target": "SWI/SNF-related matrix-associated actin-dependent regulator of chromatin subfamily A member 2 (Homo sapiens, UniProt P51531)", "sequence (P51531 whole entry)": "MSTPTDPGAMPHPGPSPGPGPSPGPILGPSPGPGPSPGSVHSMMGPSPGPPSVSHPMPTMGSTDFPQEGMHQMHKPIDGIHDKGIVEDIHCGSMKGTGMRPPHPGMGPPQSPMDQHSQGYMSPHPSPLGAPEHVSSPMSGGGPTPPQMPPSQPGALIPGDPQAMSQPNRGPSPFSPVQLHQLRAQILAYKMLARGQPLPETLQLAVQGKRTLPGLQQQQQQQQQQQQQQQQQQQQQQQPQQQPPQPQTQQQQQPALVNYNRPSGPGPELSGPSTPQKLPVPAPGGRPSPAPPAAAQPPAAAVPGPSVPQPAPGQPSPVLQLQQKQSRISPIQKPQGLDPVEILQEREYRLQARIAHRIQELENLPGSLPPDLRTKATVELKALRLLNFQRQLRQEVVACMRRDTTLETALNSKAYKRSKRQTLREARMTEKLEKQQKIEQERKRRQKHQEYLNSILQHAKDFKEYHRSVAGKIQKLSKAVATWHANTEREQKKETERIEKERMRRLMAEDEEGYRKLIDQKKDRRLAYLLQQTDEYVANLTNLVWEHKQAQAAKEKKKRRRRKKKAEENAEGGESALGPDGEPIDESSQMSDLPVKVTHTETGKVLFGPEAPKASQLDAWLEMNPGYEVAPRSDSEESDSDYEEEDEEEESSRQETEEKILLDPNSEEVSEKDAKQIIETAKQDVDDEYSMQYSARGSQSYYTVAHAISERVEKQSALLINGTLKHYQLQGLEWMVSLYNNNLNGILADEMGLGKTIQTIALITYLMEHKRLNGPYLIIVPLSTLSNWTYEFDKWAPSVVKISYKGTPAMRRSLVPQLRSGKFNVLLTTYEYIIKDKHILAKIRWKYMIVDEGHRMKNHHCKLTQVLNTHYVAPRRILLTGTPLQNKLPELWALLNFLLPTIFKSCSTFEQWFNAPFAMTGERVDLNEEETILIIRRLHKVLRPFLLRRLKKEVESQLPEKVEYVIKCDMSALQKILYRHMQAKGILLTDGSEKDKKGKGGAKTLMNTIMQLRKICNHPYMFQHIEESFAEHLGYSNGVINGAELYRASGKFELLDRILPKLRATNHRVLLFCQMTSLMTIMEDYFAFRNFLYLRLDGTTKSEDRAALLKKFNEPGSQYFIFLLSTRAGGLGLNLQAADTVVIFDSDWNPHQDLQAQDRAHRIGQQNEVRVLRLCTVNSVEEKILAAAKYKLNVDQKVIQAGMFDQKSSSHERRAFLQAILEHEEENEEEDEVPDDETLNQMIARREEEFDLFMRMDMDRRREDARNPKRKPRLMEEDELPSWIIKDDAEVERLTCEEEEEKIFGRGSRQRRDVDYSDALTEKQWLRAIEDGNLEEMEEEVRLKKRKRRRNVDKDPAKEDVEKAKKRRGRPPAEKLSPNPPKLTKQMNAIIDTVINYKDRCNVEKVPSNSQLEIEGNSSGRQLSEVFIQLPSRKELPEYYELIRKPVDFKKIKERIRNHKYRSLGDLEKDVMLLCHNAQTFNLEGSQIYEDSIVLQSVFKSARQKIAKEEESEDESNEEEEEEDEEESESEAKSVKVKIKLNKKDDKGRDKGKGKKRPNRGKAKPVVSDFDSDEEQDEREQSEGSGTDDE", "experiment": "Luminescence-based cell-based high throughput dose response assay to identify activators of the function of SWI/SNF related, matrix associated, actin dependent regulator of chromatin, subfamily a, member 2 (SMARCA2, BRM).", "assay_type": "functional"}, "[18]": {"experiment": "Counterscreen for activators of the function of SWI/SNF related, matrix associated, actin dependent regulator of chromatin, subfamily a, member 2 (SMARCA2, BRM): Luminescence-based cell-based high throughput dose response assay to identify non-selective compounds using the VP16 reporter assay.", "assay_type": "functional"}, "cells [19]": {"experiment": "cells", "assay_type": "functional, cell-based", "remark": "listed apart in the source"}, "[20]": {"molecular_target": "T9, Nuclear receptor subfamily 0 group B member 1 (Homo sapiens, UniProt P51843)", "T9 sequence (P51843 whole entry)": "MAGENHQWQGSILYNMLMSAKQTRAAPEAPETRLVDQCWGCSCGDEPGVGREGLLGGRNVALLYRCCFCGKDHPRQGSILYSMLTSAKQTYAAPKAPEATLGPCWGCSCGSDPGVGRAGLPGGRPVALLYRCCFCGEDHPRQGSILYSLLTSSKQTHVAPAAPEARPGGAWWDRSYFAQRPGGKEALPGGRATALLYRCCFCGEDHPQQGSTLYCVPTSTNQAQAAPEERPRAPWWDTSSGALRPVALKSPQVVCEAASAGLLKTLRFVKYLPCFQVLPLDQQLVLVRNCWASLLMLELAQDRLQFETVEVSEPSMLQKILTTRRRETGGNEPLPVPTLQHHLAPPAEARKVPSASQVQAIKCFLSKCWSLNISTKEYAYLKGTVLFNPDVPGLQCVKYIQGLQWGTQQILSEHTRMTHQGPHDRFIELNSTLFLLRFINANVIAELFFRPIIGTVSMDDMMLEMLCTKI", "assay_type": "functional, cell-based"}}, "note": "Active and inactive are the calls of the source.", "data": [{"smiles": "COc1ccc(NC(=O)CSc2[nH]cnc3nncc2-3)cc1", "values": [{"measurement": "EC50", "setting": "cells [1]", "value": "> 350 µM (not active)"}, {"measurement": "EC50", "setting": "cells [2]", "value": "> 350 µM (not active)"}, {"measurement": "IC50", "setting": "[3]", "value": "1.37 µM (active)"}, {"measurement": "IC50", "setting": "Steroidogenic factor 1", "value": "1.73 µM (active)"}, {"measurement": "IC50", "setting": "[4]", "value": "35.9 µM (inactive)"}]}, {"smiles": "O=C1N=c2ccccc2=C1Nc1ccc(S(=O)(=O)Nc2nccs2)cc1", "values": [{"measurement": "IC50", "setting": "[5]", "value": "4.2 µM (active)"}, {"measurement": "IC50", "setting": "[6]", "value": "9.54 µM (active)"}, {"measurement": "IC50", "setting": "[7]", "value": "11 µM (active)"}, {"measurement": "IC50", "setting": "[8]", "value": "5.32 µM (active)"}, {"measurement": "IC50", "setting": "[9]", "value": "15.5 µM (active)"}, {"measurement": "IC50", "setting": "[10]", "value": "46.1 µM (inactive)"}, {"measurement": "IC50", "setting": "[11]", "value": "51 µM (inactive)"}]}, {"smiles": "CC(=O)Nc1cccc(NC(=O)CSc2ncc(C(=O)Nc3ccccc3)c(=O)n2C)c1", "values": [{"measurement": "EC50", "setting": "[12]", "value": "12.8 µM (active)"}, {"measurement": "AC50", "setting": "[13]", "value": "6.51 µM (active)"}, {"measurement": "EC50", "setting": "Protein RecA", "value": "1.61 µM (active)"}, {"measurement": "IC50", "setting": "Melanocortin receptor 4", "value": "> 64.6 µM (inactive)"}, {"measurement": "IC50", "setting": "[14]", "value": "> 66 µM (inactive)"}, {"measurement": "IC50", "setting": "[15]", "value": "> 66 µM (inactive)"}, {"measurement": "IC50", "setting": "[16]", "value": "> 64.6 µM (inactive)"}, {"measurement": "EC50", "setting": "[17]", "value": "> 91.1 µM (inactive)"}, {"measurement": "EC50", "setting": "[18]", "value": "> 91.1 µM (inactive)"}]}, {"smiles": "O=C(CCN1C(=O)/C(=C\\C=C\\c2ccccc2)SC1=S)Nc1cccc(C(=O)O)c1", "values": [{"measurement": "IC50", "setting": "[5]", "value": "4.8 µM (active)"}, {"measurement": "IC50", "setting": "cells [19]", "value": "> 67.5 µM (inactive)"}, {"measurement": "IC50", "setting": "[20]", "value": "> 67.5 µM (inactive)"}]}]}
